Assay results: patent publication US11655243B2, “Pyridine and pyrazine derivatives as preferential cannabinoid 2 agonists” (HOFFMANN-LA ROCHE INC., priority 2018, dated 2023)

Each molecule was assayed against human CNR2 receptors (CB2 receptor) (Homo sapiens (Human), UniProt P34972) (assay: Radioligand binding assay, human CB2 (CNR2)). Settings: not given.
Description: Radioligand Binding Assay
The affinity of the compounds of the invention for cannabinoid CB1 receptors was determined using recommended amounts of membrane preparations (PerkinElmer) of human embryonic kidney (HEK) cells expressing the human CNR1 or CNR2 receptors in conjunction with 1.5 or 2.6 nM [3H]-CP-55,940 (Perkin Elmer) as radioligand, respectively. Binding was performed in binding buffer (50 mM Tris, 5 mM MgCl2, 2.5 mM EDTA, and 0.5% (wt/vol) fatty acid free BSA, pH 7.4 for CB1 receptor and 50 mM Tris, 5 mM MgCl2, 2.5 mM EGTA, and 0.1% (wt/vol) fatty acid free BSA, pH 7.4 for CB2 receptor) in a total volume of 0.2 ml for 1 h at 30° C. shaking. The reaction was terminated by rapid filtration through microfiltration plates coated with 0.5% polyethylenimine (UniFilter GFB filter plate; Packard). Bound radioactivity was analyzed for Ki using nonlinear regression analysis (Activity Base, ID Business Solution, Limited), with the Kd values for [3H]CP55,940 determined from saturation experiments. The compounds of formula (I) show an excellent affinity for the CB2 receptor.
The compounds according to formula (I) have an activity in the above assay (Ki) between 0.5 nM and 10 μM. Particular compounds of formula (I) have an activity in the above assay (Ki) between 0.5 nM and 3 μM. Other particular compounds of formula (I) have an activity in the above assay (Ki) between 0.5 nM and 100 nM.

human CNR2 receptors (CB2 receptor), sequence (P34972 whole entry): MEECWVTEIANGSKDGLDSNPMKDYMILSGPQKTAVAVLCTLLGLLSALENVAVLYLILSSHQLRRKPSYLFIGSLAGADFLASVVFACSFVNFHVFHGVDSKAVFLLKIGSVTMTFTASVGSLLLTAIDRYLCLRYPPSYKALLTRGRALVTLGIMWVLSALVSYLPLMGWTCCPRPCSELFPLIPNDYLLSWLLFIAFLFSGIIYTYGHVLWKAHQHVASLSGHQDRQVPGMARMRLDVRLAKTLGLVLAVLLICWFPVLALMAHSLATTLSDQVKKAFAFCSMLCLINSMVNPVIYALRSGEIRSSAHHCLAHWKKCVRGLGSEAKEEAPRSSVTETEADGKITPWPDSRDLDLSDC

Row | Compound | Ki [nM]
1 | CCC(CC)(NC(=O)c1ccc(N2CC(OS(=O)(=O)c3ccc(C)cc3)C2)c(OC[C@H]2C[C@@H]2CO)n1)C(=O)OCCCF (racemic) [Example 31, (Rac)-trans-3-fluoropropyl 2-ethyl-2-[[6-[[-2-(hydroxymethyl)cyclopropyl]methoxy]-5-[3-(p-tolylsulfonyloxy)azetidin-1-yl]pyridine-2-carbonyl]amino]butanoate] | 11.7

Same assay, conditions: membranes of HEK cells expressing human CNR2, 2.6 nM [3H]-CP-55,940 radioligand; read-out: Binding assay human CB2 Ki

Row | Compound | Ki [nM]
2 | CCOC(=O)C(CC)(CC)NC(=O)c1ccc(N2CC(OC)C2)c(OC[C@@H]2C[C@H]2COCF)n1 [Example 10, (−)-trans-Ethyl 2-ethyl-2-{[6-({-2-[(fluoromethoxy)methyl]cyclopropyl}methoxy)-5-(3-methoxyazetidin-1-yl)pyridine-2-carbonyl]amino}butanoate] | 8.2
3 | COC1CN(c2ccc(C(=O)N[C@H](COCCF)CC(C)C)nc2OCC2COC2)C1 [Example 17, N-[(2S)-1-(2-Fluoroethoxy)-4-methylpentan-2-yl]-5-(3-methoxyazetidin-1-yl)-6-[(oxetan-3-yl)methoxy]pyridine-2-carboxamide] | 331
4 | CCC(CC)(NC(=O)c1ccc(N2CC(OC)C2)c(OC[C@@H]2C[C@H]2CO)n1)C(=O)OCF [Example 11, (−)-trans-Fluoromethyl 2-ethyl-2-{[6-{[(1R,2R)-2-(hydroxymethyl)cyclopropyl]methoxy}-5-(3-methoxyazetidin-1-yl)pyridine-2-carbonyl]amino}butanoate] | 9.7
5 | [2H]C([2H])(OC(=O)C(CC)(CC)NC(=O)c1ccc(N2CC(OC)C2)c(OC[C@H]2C[C@@H]2CO)n1)C([2H])([2H])C([2H])([2H])OS(=O)(=O)c1ccc(C)cc1 [Example 24, [1,1,2,2,3,3-Hexadeuterio-3-(p-tolylsulfonyloxy)propyl] 2-ethyl-2-[[6-[[(1S,2S)-2-(hydroxymethyl)cyclopropyl]methoxy]-5-(3-methoxyazetidin-1-yl)pyridine-2-carbonyl]amino]butanoate] | 65.5
6 | CCC(CC)(NC(=O)c1ccc(N2CCCC2)c(OCC2(CO)COC2)n1)C(=O)OCCF [Example 34, 2-Fluoroethyl 2-ethyl-2-(6-((3-(hydroxymethyl)oxetan-3-yl)methoxy)-5-(pyrrolidin-1-yl)picolinamide)butanoate] | 607

The next lines start with the values.

Row | Ki [nM] | Compound
7 | 4150 | CCC(CC)(NC(=O)c1ccc(N2CC(F)C2)c(OC[C@@H]2C[C@H]2CO)n1)C(=O)N[C@H](CO)CC(C)C (single isomer, unassigned) [Example 27, N-[1-Ethyl-1-[[(1S)-1-(hydroxymethyl)-3-methyl-butyl]carbamoyl]propyl]-5-(3-fluoroazetidin-1-yl)-6-[[(1R,2R)-2-(hydroxymethyl)cyclopropyl]methoxy]pyridine-2-carboxamide or N-[1-ethyl-1-[[(1S)-1-(hydroxymethyl)-3-methyl-butyl]carbamoyl]propyl]-5-(3-fluoroazetidin-1-yl)-6-[[(1S,2S)-2-(hydroxymethyl)cyclopropyl]methoxy]pyridine-2-carboxamide]
8 | 348 | CCC(CC)(NC(=O)c1ccc(N2CCCC2)c(OCC2(CO)COC2)n1)C(=O)OCF [Example 33, Fluoromethyl 2-ethyl-2-[[6-[[3-(hydroxymethyl)oxetan-3-yl]methoxy]-5-pyrrolidin-1-yl-pyridine-2-carbonyl]amino]butanoate]
9 | 143 | CCOC(=O)C(CC)(CC)NC(=O)c1ccc(N2CC(OC)C2)c(OCC(C)(C)COCF)n1 [Example 8, Ethyl 2-ethyl-2-({6-[3-(fluoromethoxy)-2,2-dimethylpropoxy]-5-(3-methoxyazetidin-1-yl)pyridine-2-carbonyl}amino)butanoate]
10 | 1.7 | CCC(CC)(NC(=O)c1ccc(N2CC(F)C2)c(OC[C@H]2C[C@@H]2CO)n1)C(=O)OCCCF (single isomer, unassigned) [Example 30, 3-Fluoropropyl 2-ethyl-2-{[5-(3-fluoroazetidin-1-yl)-6-{[(1S,2S)-2-(hydroxymethyl)cyclopropyl]methoxy}pyridin-2-yl]formamido}butanoate or 3-fluoropropyl 2-ethyl-2-{[5-(3-fluoroazetidin-1-yl)-6-{[(1R,2R)-2-(hydroxymethyl)cyclopropyl]methoxy}pyridin-2-yl]formamido}butanoate]
11 | 0.8 | [2H]C([2H])(F)C([2H])([2H])C([2H])([2H])OC(=O)C(CC)(CC)NC(=O)c1ccc(N2CC(OC)C2)c(OC[C@H]2C[C@@H]2CO)n1 [Example 19, (1,1,2,2,3,3-Hexadeuterio-3-fluoro-propyl) 2-ethyl-2-[[6-[[(1S,2S)-2-(hydroxymethyl)cyclopropyl]methoxy]-5-(3-methoxyazetidin-1-yl)pyridine-2-carbonyl]amino]butanoate]
